Results as given in paper PMC11727410, “Identification of Chemical Constituents from Leaves and Stems of Alpinia oxyphylla: Potential Antioxidant and Tyrosinase Inhibitory Properties” (Antioxidants, 2024).

Tests used:
[1] = ABTS radical scavenging activity assay; settings: for Inhibitory rate (%), ABTS (Table S4): Table S4, concentration not given; for ABTS Inhibitory Rate (%): concentration 200 μM, "-" not active; for IC50: converted from μg/mL
Experimental: The ABTS radical scavenging activity was examined as previously reported at room temperature (25 °C). Briefly, 160 μL sample in DMSO with different concentrations (800, 400, 200, 100, 50, 25 μM) was reacted with 480 μL ABTS reagent in a 1.5 mL centrifuge tube away from light for 6 min. Next, 200 μL of the mixture was taken out and transferred into a 96-well plate, which was used for measuring the absorbance by a microplate reader at 734 nm (ODsample). The control (ODcontrol) and blank (ODblank) were, respectively, established from the mixture solutions of the sample in DMSO and water and the mixture solution of DMSO and ABTS reagent. Trolox was the positive control, with the same concentration with compounds. The ABTS radical scavenging capacity was calculated as following:ABTS radical scavenging capacity (%) = [1 − (ODsample − ODcontrol)/ODblank] × 100%

B16 cells [2] = test: MTT assay for cell viability; format: cell-based; settings: under the selected concentrations
Experimental: (§1) B16 melanoma cells (PNS-MC-36) were purchased from Procell Life Science & Technology Co., Ltd. (Wuhan, China).
A modified MTT method was applied to screen cell viability. B16 cells were cultured in 96-well plates and mixed with different concentrations of the sample after 24 h. After having been incubated for another 72 h, MTT solution was added to form formazan, which was followed by dissolved in 100 μL DMSO, and then the absorbance (OD) was measured at 490 nm. Cell viability was calculated as percent changes relative to control.

B16 cells [3] = test: Measurement of melanin produced by B16 cells; format: cell-based; settings: 150 μM, compared with positive control kojic acid; concentration dependent
Experimental: as §1
B16 cells were seeded into 96-well plates with […], and incubated at 37 °C, 5% CO2, and 90% humidity for 24 h. Having removed the supernatant, 100 μL samples with different concentrations were added. Medium without the sample was added as the blank. After incubation for another 72 h, the cells were dissolved in 100 μL of 2 N NaOH, and then incubated at 80 °C. The absorbance (OD) was measured at 450 nm.

[4] = DPPH radical scavenging activity assay; settings: for Inhibitory rate (%), DPPH (Table S4): Table S4, concentration not given; for DPPH Inhibitory Rate (%): concentration 200 μM; for IC50: converted from μg/mL
Experimental: The DPPH radical scavenging capacity was measured according to the following reference at room temperature (25 °C). Briefly, 320 μL sample in DMSO with different concentrations (400, 200, 100, 50, 25, 12.5 μM) was reacted with 320 μL DPPH reagent (0.1 mM) in 1.5 mL centrifuge tube away from light for 30 min. Next, 200 μL of the mixture was transferred into a 96-well plate, which was used for measuring the absorbance at 517 nm (ODsample). A control (ODcontrol) and blank (ODblank) were, respectively, established from the mixture solutions of the sample in DMSO and ethanol and the mixture solution of DMSO and DPPH reagent. Vitamin C was the positive control, with the same concentration as the compounds. The DPPH radical scavenging capacity was calculated according to the following:DPPH radical scavenging capacity (%) = [1 − (ODsample − ODcontrol)/ODblank] × 100%

[5] = ABTS radical scavenging activity assay; settings: concentration 100 μg/mL
[6] = DPPH radical scavenging activity assay; settings: concentration 100 μg/mL

## COC(=O)C1OC(Oc2c(-c3ccc(O)cc3)oc3cc(O)cc(O)c3c2=O)C(OC2OC(C)C(O)C(O)C2O)C(OC(C)=O)C1OC(C)=O [Compound 2, Kaempferol 3-O-α-L-rhamnosyl-(1 → 2)-(3″,4″-diacetyl-β-D-glucuronatemethyl ester)]
[1]
  ABTS IC50 ± SD: 6.42 ± 0.12 µg/mL
  Inhibitory rate (%), ABTS (Table S4): 93.04 ± 0.10%
  ABTS Inhibitory Rate (%): 93.04 ± 0.10%
B16 cells [2]
  Toxicity to B16 cells: no toxicity
B16 cells [3]
  Melanin production inhibition activity in B16 cells: stronger inhibitory effects than positive control (kojic acid)
[4]
  Inhibitory rate (%), DPPH (Table S4): 22.77 ± 1.85%
  DPPH Inhibitory Rate (%): 22.77 ± 1.85 %

## Cc1c(C)c2c(c(C)c1O)CCC(C)(C(=O)O)O2 (stereo not shown) [trolox, Trolox, reference compound]
[1]
  ABTS IC50 ± SD: 31.61 ± 0.60 µg/mL
  Inhibitory rate (%), ABTS (Table S4): 92.69 ± 0.03%
  ABTS Inhibitory Rate (%): 92.69 ± 0.03%
[5]
  ABTS free radical scavenging rate: 91.6%

## COc1cc(CCC(=O)CCCCc2ccccc2)ccc1O [Compound 6, yakuchinone A]
[1]
  Inhibitory rate (%), ABTS (Table S4): 4.42 ± 0.12%
  ABTS Inhibitory Rate (%): 4.42 ± 0.12 %
[4]
  Inhibitory rate (%), DPPH (Table S4): 18.77 ± 1.28%
  DPPH Inhibitory Rate (%): 18.77 ± 1.28 %

## O=c1ccc2c(O)cc3c(c2o1)C[C@@H](O)[C@@H](c1ccc(O)c(O)c1)O3 [Compound 15, isoepiphyllocoumarin]
[1]
  ABTS IC50 ± SD: 30.57 ± 0.93 µg/mL
  Inhibitory rate (%), ABTS (Table S4): 71.48 ± 0.32%
  ABTS Inhibitory Rate (%): 71.48 ± 0.32 %
[4]
  Inhibitory rate (%), DPPH (Table S4): 36.54 ± 3.60%
  DPPH Inhibitory Rate (%): 36.54 ± 3.60 %

## OC[C@H]1O[C@@H](Oc2ccccc2O)[C@H](O)[C@@H](O)[C@@H]1O [Compound 21, pyrocatechol 1-O-β-D-glucopyranoside]
[1]
  ABTS IC50 ± SD: 46.03 ± 0.27 µg/mL
  Inhibitory rate (%), ABTS (Table S4): 92.57 ± 0.27%
  ABTS Inhibitory Rate (%): 92.57 ± 0.27%
  IC50: 169 µM
[4]
  DPPH IC50 ± SD: ≥ 200 µg/mL
  Inhibitory rate (%), DPPH (Table S4): 31.39 ± 3.99%
  DPPH Inhibitory Rate (%): 31.39 ± 3.99 %

## COc1cc(CC/C=C/C(=O)CCc2ccc(O)c(OC)c2)ccc1O [Compound 8, gingerenone A]
[1]
  ABTS IC50 ± SD: 36.06 ± 1.07 µg/mL
  Inhibitory rate (%), ABTS (Table S4): 90.81 ± 0.24%
  ABTS Inhibitory Rate (%): 90.81 ± 0.24 %
[4]
  Inhibitory rate (%), DPPH (Table S4): 52.84 ± 2.47%
  DPPH Inhibitory Rate (%): 52.84 ± 2.47 %

## COc1cc(CC(O)C(O)CC2OC(CC(O)C(O)Cc3ccc(O)c(OC)c3)C3C(c4cc(OC)c(O)c(OC)c4)OC(c4cc(OC)c(O)c(OC)c4)C23)ccc1O (stereo not shown) [Compound 1, Aloxy A]
[1]
  ABTS IC50 ± SD: 39.59 ± 0.53 µg/mL
  Inhibitory rate (%), ABTS (Table S4): 91.09 ± 0.55%
  ABTS Inhibitory Rate (%): 91.09 ± 0.55 %
B16 cells [2]
  Toxicity to B16 cells: no toxicity
B16 cells [3]
  Melanin production inhibition activity in B16 cells: stronger inhibitory effects than positive control (kojic acid)
[4]
  Inhibitory rate (%), DPPH (Table S4): 50.74 ± 2.31%
  DPPH Inhibitory Rate (%): 50.74 ± 2.31 %

## O=C1O[C@H]([C@@H](O)CO)C(O)=C1O [Vitamin C, reference compound]
[6]
  DPPH free radical scavenging rate: 72.7%
[4]
  DPPH IC50 ± SD: 6.20 ± 0.41 µg/mL
  Inhibitory rate (%), DPPH (Table S4): 85.44 ± 0.34%
  DPPH Inhibitory Rate (%): 85.44 ± 0.34%

## COc1cc(CCC(=O)CC(O)CCc2ccc(O)c(OC)c2)ccc1O (stereo not shown) [Compound 7, hexahydrocurcumin]
[1]
  ABTS IC50 ± SD: 13.17 ± 0.18 µg/mL
  Inhibitory rate (%), ABTS (Table S4): 91.09 ± 0.41%
  ABTS Inhibitory Rate (%): 91.09 ± 0.41 %
B16 cells [2]
  Toxicity to B16 cells: no toxicity
B16 cells [3]
  Melanin production inhibition activity in B16 cells: stronger inhibitory effects than positive control (kojic acid)
[4]
  Inhibitory rate (%), DPPH (Table S4): 35.80 ± 0.77%
  DPPH Inhibitory Rate (%): 35.80 ± 0.77 %

## COC(=O)[C@H]1O[C@@H](Oc2c(-c3ccc(O)cc3)oc3cc(O)cc(O)c3c2=O)[C@H](O[C@@H]2O[C@@H](C)[C@H](O)[C@@H](O)[C@H]2O)[C@@H](O)[C@@H]1O [Compound 9, kaempferol 3-O-α-L-rhamnosyl-(1 → 2)-(β-D-glucuronatemethyl ester)]
[1]
  ABTS IC50 ± SD: 6.20 ± 0.05 µg/mL
  Inhibitory rate (%), ABTS (Table S4): 92.39 ± 0.27%
  ABTS Inhibitory Rate (%): 92.39 ± 0.27%
[4]
  Inhibitory rate (%), DPPH (Table S4): 43.07 ± 3.99%
  DPPH Inhibitory Rate (%): 43.07 ± 3.99 %

## COc1ccc([C@H]2OC[C@H]3[C@@H]2CO[C@@H]3c2ccc(OC)c(O[C@@H]3O[C@H](CO)[C@@H](O)[C@H](O)[C@H]3O)c2)cc1O [Compound 22, 4,4′-dimethoxy-3′-hydroxy-7,9′:7′,9-diepoxylignan-3-O-β-D-glucopyranoside]
[1]
  ABTS IC50 ± SD: 33.32 ± 0.29 µg/mL
  Inhibitory rate (%), ABTS (Table S4): 91.51 ± 0.21%
  ABTS Inhibitory Rate (%): 91.51 ± 0.21 %
[4]
  Inhibitory rate (%), DPPH (Table S4): 36.91 ± 2.04%
  DPPH Inhibitory Rate (%): 36.91 ± 2.04 %

## COc1cc(O)cc(OC)c1O[C@@H]1O[C@H](CO)[C@@H](O)[C@H](O)[C@H]1O [Compound 19, 4-hydroxy-2,6-dimethoxyphenyl-β-D-glucoside]
[1]
  ABTS IC50 ± SD: 17.50 ± 0.23 µg/mL
  Inhibitory rate (%), ABTS (Table S4): 92.57 ± 0.10%
  ABTS Inhibitory Rate (%): 92.57 ± 0.10%
  IC50: 52.9 µM
[4]
  DPPH IC50 ± SD: 114.44 ± 0.14 µg/mL
  Inhibitory rate (%), DPPH (Table S4): 60.59 ± 0.17%
  DPPH Inhibitory Rate (%): 60.59 ± 0.17 %
  IC50: 345 µM

## O=C1C[C@@H](c2ccccc2)Oc2cc(O)cc(O)c21 [Compound 14, pinocembrin]
[1]
  ABTS IC50 ± SD: 27.73 ± 0.69 µg/mL
  Inhibitory rate (%), ABTS (Table S4): 78.11 ± 0.32%
  ABTS Inhibitory Rate (%): 78.11 ± 0.32 %
[4]
  Inhibitory rate (%), DPPH (Table S4): 27.53 ± 1.96%
  DPPH Inhibitory Rate (%): 27.53 ± 1.96 %

## COc1cc(O)c2c(=O)cc(-c3ccccc3)oc2c1 [Compound 13, tectochrysin]
[1]
  ABTS IC50 ± SD: 20.81 ± 0.29 µg/mL
  Inhibitory rate (%), ABTS (Table S4): 91.93 ± 1.68%
  ABTS Inhibitory Rate (%): 91.93 ± 1.68 %
[4]
  Inhibitory rate (%), DPPH (Table S4): 18.61 ± 0.62%
  DPPH Inhibitory Rate (%): 18.61 ± 0.62 %

## O=c1ccc2c3c(c(O)cc2o1)C[C@@H](O)[C@@H](c1ccc(O)c(O)c1)O3 [Compound 16, epiphyllocoumarin]
[1]
  ABTS IC50 ± SD: 8.49 ± 0.06 µg/mL
  Inhibitory rate (%), ABTS (Table S4): 92.51 ± 0.27%
  ABTS Inhibitory Rate (%): 92.51 ± 0.27%
[4]
  DPPH IC50 ± SD: 7.29 ± 0.60 µg/mL
  Inhibitory rate (%), DPPH (Table S4): 76.93 ± 1.34%
  DPPH Inhibitory Rate (%): 76.93 ± 1.34 %

## OC[C@H]1O[C@@H](OCc2ccccc2)[C@H](O)[C@@H](O)[C@@H]1O [Compound 17, benzyl O-β-D-glucopyranoside]
[4]
  Inhibitory rate (%), DPPH (Table S4): 25.74 ± 1.49%
  DPPH Inhibitory Rate (%): 25.74 ± 1.49 %

## COc1ccc(-c2oc3cc(OC)cc(O)c3c(=O)c2O)cc1 [Compound 12, 3,5-dihydroxy-4′,7-dimethoxyflavone]
[1]
  ABTS IC50 ± SD: 8.55 ± 0.08 µg/mL
  Inhibitory rate (%), ABTS (Table S4): 75.07 ± 0.46%
  ABTS Inhibitory Rate (%): 75.07 ± 0.46 %
[4]
  DPPH IC50 ± SD: 23.15 ± 3.24 µg/mL
  Inhibitory rate (%), DPPH (Table S4): 79.80 ± 2.02%
  DPPH Inhibitory Rate (%): 79.80 ± 2.02 %

## COc1cc(O)ccc1O[C@@H]1O[C@H](CO)[C@@H](O)[C@H](O)[C@H]1O [Compound 20, 1,4-dihydroxyl-3-methoxyphenyl-4-O-β-D-glucopyranoside]
[1]
  ABTS IC50 ± SD: 8.20 ± 0.14 µg/mL
  Inhibitory rate (%), ABTS (Table S4): 92.80 ± 0.31%
  ABTS Inhibitory Rate (%): 92.80 ± 0.31%
  IC50: 27.2 µM
[4]
  DPPH IC50 ± SD: 23.21 ± 2.88 µg/mL
  Inhibitory rate (%), DPPH (Table S4): 84.06 ± 1.79%
  DPPH Inhibitory Rate (%): 84.06 ± 1.79%
  IC50: 77 µM
